Results from PubChem BioAssay (NCI).
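Exposure lasted 48 hours, with cells grown in 96-well plates and compounds tested at five concentrations. The concentration for full growth arrest is given as TGI.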 Where a SMILES comes first, the peptide text is derived from it.

Tests used:
Experiment in all cases: DTP human tumour cell line panel, 48 h
A498 renal = tested on: A498 renal
A549 NSCLC = tested on: A549 NSCLC
HL-60(TB) leukemia = tested on: HL-60(TB) leukemia
SF-268 CNS = tested on: SF-268 CNS
MOLT-4 leukemia = tested on: MOLT-4 leukemia
SK-MEL-2 melanoma = tested on: SK-MEL-2 melanoma
HT29 colon = tested on: HT29 colon
NCI/ADR-RES ovarian = tested on: NCI/ADR-RES ovarian
DU-145 prostate = tested on: DU-145 prostate
HCC-2998 colon = tested on: HCC-2998 colon

| SMILES | TGI (A498 renal) [µM] | TGI (A549 NSCLC) [µM] | TGI (HL-60(TB) leukemia) [µM] | TGI (SF-268 CNS) [µM] | TGI (MOLT-4 leukemia) [µM] | TGI (SK-MEL-2 melanoma) [µM] | TGI (HT29 colon) [µM] | TGI (NCI/ADR-RES ovarian) [µM] | TGI (DU-145 prostate) [µM] | TGI (HCC-2998 colon) [µM] |
| --- | --- | --- | --- | --- | --- | --- | --- | --- | --- | --- |
| Cc1ccc(C2(N3CCOCC3)OC(C)(C)c3cccc4cccc2c34)cc1 (centres undefined) | 32.9 | 29 | > 100 | 28.7 | > 100 | 30.5 | 31.8 | 31.2 | 37 | – |
| C=C(C)[C@@H]1CC[C@]2(C(=O)OC3OC(COC4OC(CO)C(OC5OC(C)C(O)C(O)C5O)C(O)C4O)C(O)C(O)C3O)CC[C@]3(C)[C@H](CC[C@@H]4[C@@]5(C)CC[C@H](O)[C@@](C)(CO)[C@@H]5CC[C@]43C)[C@@H]12 (some centres undefined) | > 10 | > 10 | 1.13 | 9.89 | – | 6.22 | > 10 | > 10 | > 10 | > 6.91 |
| COc1ccc(C[C@H]2COC(=O)[C@@H]2Cc2ccccc2)cc1OC | > 100 | > 100 | – | – | > 100 | – | > 100 | > 100 | > 100 | – |
| CC(=O)c1cc(S(=O)(=O)c2ccc(O)c(C(C)=O)c2)ccc1O | > 100 | > 100 | – | > 100 | > 100 | > 100 | > 100 | > 100 | > 100 | > 100 |
| Cc1sc2nc3n(sc4nc5sc(C)c(C)c5c(=O)n43)c(=O)c2c1C | – | > 100 | > 100 | > 100 | 52 | > 100 | > 100 | > 100 | > 100 | > 100 |
| COCCN(C(=O)c1ccccc1)C1CCC(=O)c2[nH]c3ccccc3c21 (centres undefined) | 33.4 | 31.2 | 58.8 | 28.4 | 26.9 | 17.8 | 24.3 | 53.6 | 27.9 | 31.8 |
| CCn1c(SCc2nnc(Nc3ccccc3)s2)nc2ccccc2c1=O | 3.92 | 19.3 | – | 22.3 | > 100 | 32 | 12.5 | 10.9 | 36.5 | 31.7 |
| COC(C[C@H]1CCCC[C@]1(O)/C(=C\CO[Si](C(C)C)(C(C)C)C(C)C)Sc1ccccc1)OC | > 100 | > 100 | > 100 | > 100 | 38.8 | 49.9 | > 100 | > 100 | > 100 | 34.2 |
| C/C=C\C(CC(=O)NCCc1c[nH]c2ccccc12)CC(=O)OC (centres undefined) | > 100 | > 100 | – | > 100 | > 100 | > 100 | > 100 | > 100 | > 100 | > 100 |
| C=C(C)C(=O)O[C@H]1CC2(CO)O[C@@H]2CC/C(COC(C)=O)=C/C2OC(=O)C(=C)[C@@H]21 (some centres undefined) | > 100 | > 100 | 29.6 | > 100 | 29.8 | > 100 | > 100 | > 100 | > 100 | > 91.6 |
| O=c1[nH]nc(N/N=C\c2ccc(Cl)cc2)c2ccccc12 | 51.2 | 41.6 | > 100 | 55.5 | > 100 | 37 | > 100 | 39 | 72 | – |
| CC(=O)OCC1(CNc2nc(N)ncc2C#N)CC(CCc2ccccc2)C1 (centres undefined) | > 100 | > 100 | > 100 | > 100 | > 100 | > 100 | > 100 | > 100 | > 100 | – |
| CCCOC1OC(CS(=O)(=O)O)C(OC(C)=O)C(OC(C)=O)C1OC(C)=O (centres undefined) | > 100 | – | > 100 | – | > 100 | > 100 | > 100 | > 100 | > 100 | > 100 |
| CN1CCCC(OC(=O)c2cc3cc(CCl)ccc3oc2=O)C1 (centres undefined) | – | > 100 | 13.2 | 47 | 98 | 33.9 | 46.9 | 87 | > 100 | 33.1 |
| O=C(O)c1cc(Nc2c(O)c3c(c(O)c2Cl)C(=O)C=CC3=O)ccc1O | > 10 | > 10 | – | > 10 | > 10 | – | > 10 | > 10 | > 10 | > 10 |
| CCOC(=O)NC(OCc1ccccc1)(C(=O)OC)C(F)(F)F (centres undefined) | – | > 100 | > 100 | > 100 | > 100 | > 100 | > 100 | > 100 | > 100 | > 100 |
| COC(=O)NC(Nc1ccc(C)cc1)(C(F)(F)F)C(F)(F)F | > 100 | > 100 | > 100 | > 100 | > 100 | > 100 | > 100 | > 100 | > 100 | > 100 |
| CCOC(=O)c1nc2ccccc2nc1Nc1ccc(F)cc1 | 58.5 | > 100 | > 100 | 30 | > 100 | > 83.4 | > 100 | > 100 | > 100 | > 100 |
| Cc1cc(C)c(C#N)c(SC(=S)NC(=O)c2ccccc2)n1 | > 100 | > 100 | – | > 100 | > 100 | > 100 | > 100 | > 100 | > 100 | > 100 |
| Cc1ccc(C(=O)NN=C(/N=N/c2cccc(C)c2)c2ccc(N(C)C)cc2)cc1 | – | > 100 | > 100 | > 100 | > 100 | > 100 | > 100 | > 100 | > 100 | > 100 |
| CCC(C)C(NC(=O)C1CCCN1)C(=O)NC(C(=O)NCC(=O)NC(CC(N)=O)C(=O)NC(CC(C)C)C(=O)NC(CC(C)C)C(=O)NC(CCCCN)C(N)=O)C(C)C (centres undefined) (H-PIVGNLLK-NH2; configuration not given here) | > 75 | > 75 | > 75 | > 75 | > 75 | > 75 | > 75 | > 75 | > 75 | – |
